The record followed here is ChEMBL document CHEMBL1201862, “PubChem BioAssay data set” (2004).

Some test systems named below: K562; OVCAR-4; M14; A498; SK-OV-3; LOX IMVI; NCI-H23; A549; IGROV-1; OVCAR-3; SK-MEL-2; HCT-15; OVCAR-8; 786-0; OVCAR-5; SW-620; HCT-116.
Common to all, as to assay: inhibition of tumour cell growth, NCI panel, 48 h

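Briefly, cells in 96-well plates were exposed to five compound concentrations for 48 h, and endpoints were estimated by linear interpolation. Here, GI50 denotes the concentration required for 50% inhibition of growth.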 Active and inactive are the calls of the source. Rule as the data show it: active = GI50 up to about 1.1 µM and inactive = higher.

`C=CCN(N=O)C(=O)NCCCC(NC(C)=O)C(=O)NCc1ccccc1` (stereo unspecified): the GI50 with K562, with OVCAR-4, in the assay with M14, in the assay with A498, in the assay on SK-OV-3 and in the assay with LOX IMVI was > 100 µM (inactive) each time. In addition, the GI50 in the assay with NCI-H23 was > 100 µM (inactive); in the assay on A549, > 100 µM (inactive); in the assay with IGROV-1, > 100 µM (inactive); in the assay with OVCAR-3, > 100 µM (inactive); in the assay with SK-MEL-2, > 100 µM (inactive); in the assay with HCT-15, above 100 µM. The GI50 in the assay on OVCAR-8, in the assay with 786-0, in the assay on OVCAR-5 and in the assay on SW-620 was > 100 µM (inactive) each time.

Turning to `OCCN(CCO)c1cccc(N(CCO)CCO)n1`, the GI50 in the assay on K562, in the assay with OVCAR-4, in the assay with M14, in the assay with A498, with SK-OV-3 and with LOX IMVI was > 100 µM (inactive) each time. Further, the GI50 with HCT-116 was > 100 µM (inactive); in the assay on A549 it was > 100 µM (inactive); with OVCAR-3, > 100 µM (inactive); in the assay on SK-MEL-2, > 100 µM (inactive); in the assay with HCT-15, above 100 µM; in the assay with OVCAR-8, > 100 µM (inactive). In addition, the GI50 in the assay on 786-0 and in the assay with SW-620 was > 100 µM (inactive) throughout.

Consider `CCOC(=O)c1cc2c(cn1)[nH]c1cccc(N)c12`, for which the GI50 in the assay with K562, with OVCAR-4, in the assay with M14, in the assay on LOX IMVI, in the assay with HCT-116 and with NCI-H23 was > 100 µM (inactive) each time. Moreover, the GI50 in the assay on A549, with IGROV-1, with OVCAR-3, in the assay with OVCAR-8, with 786-0 and in the assay on OVCAR-5 was > 100 µM (inactive) in each case. In addition, in the assay with SW-620, the GI50 was > 100 µM (inactive).

As for `Cc1ccc(NC(=O)CCC(=O)C2CC(=O)CC/C2=N\NC(=O)c2cc3ccccc3cc2O)cc1C` (stereo unspecified), the GI50 in the assay with K562 was 8.18 µM (inactive); with OVCAR-4, 16.4 µM (inactive); with M14, 25.8 µM (inactive); in the assay on A498 it was 38.4 µM (inactive); in the assay on SK-OV-3, 67.9 µM (inactive); with HCT-116, 19.6 µM (inactive). Further, the GI50 in the assay with NCI-H23 was 15.7 µM (inactive); in the assay on A549, 25.1 µM (inactive); in the assay with IGROV-1, 15.5 µM (inactive); in the assay on OVCAR-3, 14.8 µM (inactive); in the assay with SK-MEL-2, 26.4 µM (inactive); in the assay on HCT-15, 14.7 µM. The GI50 in the assay with OVCAR-8 is 24.7 µM (inactive); in the assay on 786-0, 25.8 µM (inactive); with OVCAR-5, 22 µM (inactive); with SW-620 it was 25.6 µM (inactive).

Consider `CCCCN(CCCC)CC(C(=O)Nc1ccccc1)/C(C)=N\NC(=O)c1ccncc1` (stereo unspecified), for which the GI50 in the assay on K562 was > 100 µM (inactive); in the assay on OVCAR-4, > 100 µM (inactive); in the assay with M14 it was > 100 µM (inactive); with SK-OV-3 it was > 100 µM (inactive); in the assay with LOX IMVI, 81.5 µM (inactive); in the assay with HCT-116, 92 µM (inactive). The GI50 with NCI-H23 is > 100 µM (inactive); with A549, > 100 µM (inactive); in the assay on IGROV-1, > 100 µM (inactive); in the assay on OVCAR-3, 64.7 µM (inactive); in the assay with HCT-15, above 100 µM; in the assay with OVCAR-8, > 100 µM (inactive). Also, the GI50 in the assay on 786-0, in the assay on OVCAR-5 and with SW-620 was > 100 µM (inactive) throughout.

For the compound `Nc1ccn(CCOC(c2ccccc2)P(=O)(O)O)c(=O)n1` (stereo unspecified), the GI50 in the assay with A498, in the assay with SK-OV-3, in the assay on LOX IMVI, with HCT-116, with NCI-H23 and in the assay on A549 was > 100 µM (inactive) in each case. Moreover, the GI50 in the assay on IGROV-1 was > 100 µM (inactive); with OVCAR-3, > 100 µM (inactive); with SK-MEL-2, > 100 µM (inactive); with HCT-15 it was above 100 µM; in the assay with OVCAR-8 it was > 100 µM (inactive); in the assay on 786-0, > 100 µM (inactive). Also, the GI50 in the assay with OVCAR-5 and with SW-620 was > 100 µM (inactive) in each case.

On to `O=C(O)C12C=CC(C1)c1ccccc12` (stereo unspecified), for which the GI50 in the assay on K562, with OVCAR-4, in the assay on M14, with A498, in the assay on SK-OV-3 and in the assay with LOX IMVI was > 100 µM (inactive) each time. In addition, the GI50 is > 100 µM (inactive) in the assay on HCT-116; > 100 µM (inactive) with NCI-H23; > 100 µM (inactive) in the assay on A549; > 100 µM (inactive) with IGROV-1; > 100 µM (inactive) in the assay with OVCAR-3; above 100 µM in the assay with HCT-15. The GI50 in the assay on OVCAR-8, with 786-0, in the assay on OVCAR-5 and in the assay with SW-620 was > 100 µM (inactive) throughout.

In the case of `CC(C)(C)C(=O)Cc1cc2c(cc1C(=O)O)S(=O)(=O)NC(C(C)(C)C)=C2`, the GI50 with K562, in the assay with OVCAR-4, with M14, in the assay on A498, in the assay on SK-OV-3 and with HCT-116 was > 100 µM (inactive) each time. For the same compound, the GI50 in the assay on NCI-H23, in the assay on A549, in the assay with OVCAR-3, in the assay on SK-MEL-2, in the assay with OVCAR-8 and with 786-0 was > 100 µM (inactive) in each case. Also, the GI50 with OVCAR-5 and in the assay with SW-620 was > 100 µM (inactive) each time.

With `COc1ccc(Cc2nccc3cc(OC)c(OC)cc23)cc1`, the GI50 in the assay on K562 was 48 µM (inactive); in the assay with OVCAR-4, 36.5 µM (inactive); with M14, > 100 µM (inactive); in the assay on A498, 42.2 µM (inactive); in the assay on SK-OV-3, > 100 µM (inactive); in the assay with HCT-116 it was 57.4 µM (inactive). Besides, the GI50 was 37.2 µM (inactive) in the assay on NCI-H23; > 100 µM (inactive) with A549; 95.1 µM (inactive) with IGROV-1; 50.4 µM (inactive) in the assay with OVCAR-3; > 100 µM (inactive) in the assay with SK-MEL-2; 57.3 µM with HCT-15. In addition, the GI50 in the assay on OVCAR-8 was 91.8 µM (inactive); in the assay with 786-0 it was > 100 µM (inactive); in the assay with OVCAR-5 it was 40.4 µM (inactive); in the assay with SW-620 it was > 100 µM (inactive).

In the case of `C=CCNC(=O)N(CCC)CCCCC(NC(C)=O)C(=O)NCc1ccccc1` (stereo unspecified), the GI50 with K562, in the assay with OVCAR-4, in the assay with M14, in the assay on A498, in the assay with SK-OV-3 and with LOX IMVI was > 100 µM (inactive) each time. Besides, the GI50 is > 100 µM (inactive) with NCI-H23; > 100 µM (inactive) in the assay with A549; > 100 µM (inactive) in the assay on IGROV-1; > 100 µM (inactive) in the assay on OVCAR-3; > 100 µM (inactive) with SK-MEL-2; above 100 µM in the assay on HCT-15. Further, the GI50 in the assay on OVCAR-8, in the assay on 786-0, in the assay on OVCAR-5 and in the assay with SW-620 was > 100 µM (inactive) in each case.

Regarding `COc1ccc2nc3n(c2c1)C(=O)c1ccccc1-3`, the GI50 in the assay with K562 was > 100 µM (inactive); in the assay on OVCAR-4, > 100 µM (inactive); in the assay on M14, > 100 µM (inactive); in the assay on SK-OV-3, 15.1 µM (inactive); with HCT-116, > 100 µM (inactive); in the assay with NCI-H23, > 100 µM (inactive). The GI50 in the assay with A549 was > 100 µM (inactive); in the assay on IGROV-1, > 100 µM (inactive); in the assay with OVCAR-3, > 100 µM (inactive); in the assay with SK-MEL-2, > 100 µM (inactive); in the assay on HCT-15 it was above 100 µM; in the assay with OVCAR-8, > 100 µM (inactive). In addition, the GI50 in the assay on 786-0, in the assay on OVCAR-5 and in the assay with SW-620 was > 100 µM (inactive) throughout.

With `COC(=O)c1cc(C)n(NC(=O)OC(C)(C)C)c1C`, the GI50 in the assay on K562, in the assay with M14, with A498, in the assay on SK-OV-3, with LOX IMVI and with HCT-116 was > 100 µM (inactive) each time. In addition, the GI50 in the assay with NCI-H23 was > 100 µM (inactive); in the assay on A549, > 100 µM (inactive); in the assay with IGROV-1, > 100 µM (inactive); in the assay on OVCAR-3 it was > 100 µM (inactive); in the assay on SK-MEL-2, > 100 µM (inactive); with HCT-15 it was above 100 µM. Also, the GI50 with OVCAR-8, with 786-0, in the assay with OVCAR-5 and in the assay with SW-620 was > 100 µM (inactive) each time.

`COC1CC(OC)C2OC(c3ccccc3)OCC2O1` (stereo unspecified): the GI50 in the assay with K562, in the assay with M14, in the assay with SK-OV-3, in the assay with LOX IMVI, in the assay with HCT-116 and in the assay on NCI-H23 was > 100 µM (inactive) in each case. For the same compound, the GI50 in the assay with A549 is > 100 µM (inactive); in the assay on IGROV-1, > 100 µM (inactive); in the assay with OVCAR-3, > 100 µM (inactive); in the assay on SK-MEL-2 it was > 100 µM (inactive); in the assay with HCT-15 it was above 100 µM; with OVCAR-8 it was > 100 µM (inactive). The GI50 in the assay with 786-0, in the assay on OVCAR-5 and in the assay with SW-620 was > 100 µM (inactive) throughout.
